Laboratory results taken from article PMC6452685, “Lysyl-tRNA synthetase as a drug target in malaria and cryptosporidiosis” (Proceedings of the National Academy of Sciences of the …, 2019).

How the values were obtained:
[1] = Hepatocyte stability, human; type: in vitro ADME
Experimental: SUPPLEMENTARY INFORMATION where V (ml/mg protein) is the incubation volume/mg protein added (0.5) and microsomal protein yield is taken as being 52.5 mg protein per g liver. Verapami l (0. 5 µ M ) w as us ed as a pos i t i v e cont rol to confirm ac ceptable assay performance. Ex peri ments were performed us i ng a s i ngl e ti me-cours e […]
4.5 He pat ocy t e s t abilit y
Cryopreserved hepatocytes were used to take non-CYP mediated Phase I and Phase II enzymes into […]
than those determined using li v e r mi crosomes or other subcellular liver fractions and could be mo re predi ct i v e of a met abol i c rat e det ermi ned in vivo.
Cryopreserved mouse (batch MC539) and huma n (batch HU E50H) hepatocytes were supplied by ThermoFi sher Sci enti fi c, Pai sl ey, UK and Xenotech, LLC, respectively. Cryopreserved hepatocytes were rapidly thawed in a pre-heat ed w at er bat h at 37 °C before ad di ng to 50 ml of pre-warmed CHRM medi a (ThermoFi sher Sci enti fi c, Paisley, UK) and mi xed gentl y. […] […] 5 mi l li on v i abl e cel l s /ml i n s uppl emented W ME. Onl y s us pens i ons whi ch ac hi ev ed >80% pos t-thaw viability were us ed i n ex peri ment s . […]
DMSO and 0.25 million cells/ml. […]

CYP2C19 = target: T1, CYP2C19 (Homo sapiens, UniProt P33261); assay: Fluorescence-based CYP inhibition, CYP2C19; type: in vitro ADME
T1 construct: purchased Cypex, Dundee, UK; host or cells: bacterial membranes (bactosomes)
Experimental: 4.7 F lu or e s ce nce-based CYP I nhibition usin g recombinantly expressed CYP b actosomes Fl uorogeni c C YP i nhi bi t i on s t udi es w ere c ondu ct ed at 37 °C i n 96-well, flat-bot t om, cl ear p ol y s t y rene pl at es. I ncubat i on mi xt ures cont ai ni ng Eas y C YP bact os omes (1000 pmol /ml , 10 mg /ml C y pex TM, Dundee, UK), fl uorogeni c substrate (Cypex TM) and 50 mM potas s i um phosphat e buffer (p H 7. 4) w er e prepared at t he fol l ow i ng fi nal concent rat i ons : C YP1A2, 5 pmol /ml + 35 µ M et hox y res orufi n (ER) ; CYP2C9, 10 pm ol/ml + 30 µM 7-methoxy-4-(tri fl uo romethy l )-coumari n (MFC ); C YP 2C 19, 5 pm ol /ml + 25 µM 3-cy ano-7-eth oxycoumarin (CEC); C YP 2D 6, 10 pmol /ml + 6 µM 7-meth oxy-4-(ami nomethy l )- coumari n (MAMC ); C YP 3A4, 10 pmol /ml + 1 µM diethoxyfluorescein (DEF) and 10 pmol /ml + 15 µM 7-benz y l ox y qui nol i ne (BQ ). […] 0125 ( 1A2 and 2C 9 onl y ) o r 0. 025 mg /ml (al l ot her i s oforms ). […] Positive control inhibitor, miconazole, was prepared as a 500 µM s olution in DMSO and similarly diluted.
For eac h i sofo rm, 2 20 µl of i ncubati on mi x was added to each wel l of a 96-well, flat-bot t om, cl ear pol y s t y rene pl at e. Al i quot s (5 µl) of each compound 5 conce ntrati on was then mi x ed wi th 220 µl of the incubation mix and pre-incubated at 37 °C for 5 min (final test compound concentration range: […]

[2] = test system: Nluc-expressing transgenic C. parvum; assay: Anti-Cryptosporidium in vivo efficacy in IFN-γ-knockout mice (Nluc C. parvum); parameters: species or system mouse; details: 20 mg/kg orally once a day for 7 d
Experimental: INF-γ–knockout mice ([28], [29]) were infected orally with Nluc-expressing transgenic C. parvum oocysts. Treatment started upon patency 4 d postinfection (p.i.), and mice were treated orally once a day for 7 d. Infection was monitored daily by luciferase measurements in pooled feces of the entire cage. Mice were followed for 3 wk after completion of drug treatment. […] NOD SCID gamma mice were infected with C. parvum oocysts ([26]). Treatment started 7 d p.i., and mice were treated orally once a day for 7 d. The study was run with four mice per cage; infection was monitored by quantitative PCR on day eight for individual mice, and data are shown as oocysts per milligram of feces. […]
Data analysis was performed using GraphPad Prism 7.0 (GraphPad S oftware), Excel 2016 (Microsoft ) and R free so ftware (https://www.r-project.org) for data pl otti ng and s tati s ti cal model li ng. […]
5. 4 M eas urement of a nt i-Cryptosporidium in vivo efficacy in IFN-γ-knockout mice (Georgia) The Nl uc-C. parvum IFN-γ-knockout (IFN-γ KO) m ouse in vivo experiments were run in acco rdance with the publ i s hed method (22). Briefly, female C57BL/ 6 IFN-γ KO mi ce, aged 6–8 weeks were infected with 10,000 C. parvum UG A1 Nl uc (Vi naya k et al 2015, Natu re) tra ns g eni c oocys ts . […]

T1 sequence (P33261 whole entry): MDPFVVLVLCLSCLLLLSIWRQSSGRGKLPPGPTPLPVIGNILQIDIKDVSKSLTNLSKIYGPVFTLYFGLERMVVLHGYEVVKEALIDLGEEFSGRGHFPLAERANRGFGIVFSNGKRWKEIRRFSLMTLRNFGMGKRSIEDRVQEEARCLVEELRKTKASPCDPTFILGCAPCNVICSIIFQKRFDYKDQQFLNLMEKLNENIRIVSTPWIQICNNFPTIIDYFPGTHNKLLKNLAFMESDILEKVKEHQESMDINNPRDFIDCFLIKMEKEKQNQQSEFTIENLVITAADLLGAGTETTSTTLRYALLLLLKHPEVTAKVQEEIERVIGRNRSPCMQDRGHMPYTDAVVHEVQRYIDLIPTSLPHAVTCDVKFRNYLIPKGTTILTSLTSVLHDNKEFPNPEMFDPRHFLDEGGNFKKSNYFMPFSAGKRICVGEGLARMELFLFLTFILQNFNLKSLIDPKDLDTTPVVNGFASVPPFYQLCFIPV

## O=C(NCC1(O)CCC(F)(F)CC1)c1cc(=O)c2cc(F)ccc2o1 [Compound 5]
[1]
  Hepatocyte stability CLint: 0.5 (mouse), <0.5 (human) mL⋅min^−1⋅g^−1
CYP2C19
  IC50: > 10 µM
[2]; INF-γ–knockout mice
  parasite shedding: below detection level
[2]; INF-γ–knockout mouse, day 8
  reduction in parasite levels compared with control: 10,000 fold
